Source: ChEMBL document CHEMBL3352632 (Bioorg Med Chem, 2014)
Activity calls are given as the source filed them. The rule behind the calls is not given here.

Legend:
HepG2 [1] = test: Induction of apoptosis in human HepG2 cells assessed as late apoptotic cells level at 5 uM after 24 hrs by annexin V/propidium iodide double staining based flow cytometry; type: functional
HepG2 [2] = test: Induction of apoptosis in human HepG2 cells assessed as late apoptotic cells level at 10 uM after 24 hrs by annexin V/propidium iodide double staining based flow cytometry; type: functional
[3] = Binding affinity to fluorescently-labeled duplex DNA (unknown origin) by thiazole-ornage dye based fluorescence intercalator displacement assay
HepG2 [4] = test: Cell cycle arrest in human HepG2 cells assessed as accumulation at G0/G1 phase at 5 uM after 12 hrs by propidium iodide staining based flow cytometry (reference value: 53.4%); type: functional
HepG2 [5] = test: Cell cycle arrest in human HepG2 cells assessed as accumulation at G2/M phase at 5 uM after 12 hrs by propidium iodide staining based flow cytometry (reference value: 25.2%); type: functional
HepG2 [6] = test: Cell cycle arrest in human HepG2 cells assessed as accumulation at S phase at 2.5 uM after 12 hrs by propidium iodide staining based flow cytometry (reference value: 19.5%); type: functional
[7] = Binding affinity to fluorescently-labeled c-KIT1 G-quadruplex DNA (unknown origin) by thiazole-ornage dye based fluorescence intercalator displacement assay
HepG2 [8] = test: Induction of apoptosis in human HepG2 cells assessed as necrotic cells level at 2.5 uM after 24 hrs by annexin V/propidium iodide double staining based flow cytometry; type: functional
HepG2 [9] = test: Cell cycle arrest in human HepG2 cells assessed as accumulation at G2/M phase at 10 uM after 12 hrs by propidium iodide staining based flow cytometry (reference value: […]); type: functional
HepG2 [10] = test: Cell cycle arrest in human HepG2 cells assessed as accumulation at subG0 phase at 10 uM after 12 hrs by propidium iodide staining based flow cytometry (reference value: 1.8%); type: functional
[11] = Binding affinity to fluorescently-labeled c-KIT1 G-quadruplex DNA (unknown origin) assessed as change in melting temperature at 2 uM in presence of 5 uM c-MYC G-quadruplex DNA by FRET assay
[12] = Selectivity for fluorescently-labeled c-KIT1 G-quadruplex DNA (unknown origin) over fluorescently-labeled h-TELO G-quadruplex DNA (unknown origin)
HepG2 [13] = test: Induction of apoptosis in human HepG2 cells assessed as early apoptotic cells level at 10 uM after 24 hrs by annexin V/propidium iodide double staining based flow cytometry; type: functional
HepG2 [14] = test: Cell cycle arrest in human HepG2 cells assessed as accumulation at subG0 phase at 2.5 uM after 12 hrs by propidium iodide staining based flow cytometry (reference value: 1.8%); type: functional
HepG2 [15] = test: Induction of apoptosis in human HepG2 cells assessed as necrotic cells level at 5 uM after 24 hrs by annexin V/propidium iodide double staining based flow cytometry; type: functional
[16] = Binding affinity to fluorescently-labeled c-MYC G-quadruplex DNA (unknown origin) by thiazole-ornage dye based fluorescence intercalator displacement assay
[17] = Selectivity for fluorescently-labeled c-KIT1 G-quadruplex DNA (unknown origin) over fluorescently-labeled c-MYC G-quadruplex DNA (unknown origin)
[18] = Binding affinity to fluorescently-labeled c-KIT2 G-quadruplex DNA (unknown origin) by thiazole-ornage dye based fluorescence intercalator displacement assay
HepG2 [19] = test: Induction of apoptosis in human HepG2 cells assessed as necrotic cells level at 10 uM after 24 hrs by annexin V/propidium iodide double staining based flow cytometry; type: functional
HepG2 [20] = test: Cell cycle arrest in human HepG2 cells assessed as accumulation at S phase at 5 uM after 12 hrs by propidium iodide staining based flow cytometry (reference value: 19.5%); type: functional
[21] = Binding affinity to fluorescently-labeled c-KIT1 G-quadruplex DNA (unknown origin) assessed as change in melting temperature at 2 uM by FRET assay
[22] = Binding affinity to fluorescently-labeled c-KIT1 G-quadruplex DNA (unknown origin) assessed as change in melting temperature at 2 uM in presence of 5 uM h-TELO G-quadruplex DNA by FRET assay
HepG2 [23] = test: Induction of apoptosis in human HepG2 cells assessed as late apoptotic cells level at 2.5 uM after 24 hrs by annexin V/propidium iodide double staining based flow cytometry; type: functional
HepG2 [24] = test: Cell cycle arrest in human HepG2 cells assessed as accumulation at subG0 phase at 5 uM after 12 hrs by propidium iodide staining based flow cytometry (reference value: 1.8%); type: functional
[25] = Binding affinity to fluorescently-labeled h-TELO G-quadruplex DNA (unknown origin) by thiazole-ornage dye based fluorescence intercalator displacement assay
HepG2 [26] = test: Induction of apoptosis in human HepG2 cells assessed as early apoptotic cells level at 2.5 uM after 24 hrs by annexin V/propidium iodide double staining based flow cytometry; type: functional
[27] = Binding affinity to fluorescently-labeled c-KIT1 G-quadruplex DNA (unknown origin) assessed as change in melting temperature by FRET assay
HepG2 [28] = test: Cell cycle arrest in human HepG2 cells assessed as accumulation at S phase at 10 uM after 12 hrs by propidium iodide staining based flow cytometry (reference value: 19.10%); type: functional
[29] = Selectivity for fluorescently-labeled c-KIT1 G-quadruplex DNA (unknown origin) over fluorescently-labeled c-KIT2 G-quadruplex DNA (unknown origin)
HepG2 [30] = test: Induction of apoptosis in human HepG2 cells assessed as early apoptotic cells level at 5 uM after 24 hrs by annexin V/propidium iodide double staining based flow cytometry; type: functional
HepG2 [31] = test: Cell cycle arrest in human HepG2 cells assessed as accumulation at G2/M phase at 2.5 uM after 12 hrs by propidium iodide staining based flow cytometry (reference value: 25.2%); type: functional
HepG2 [32] = test: Cell cycle arrest in human HepG2 cells assessed as accumulation at G0/G1 phase at 2.5 uM after 12 hrs by propidium iodide staining based flow cytometry (reference value: 53.4%); type: functional
HepG2 [33] = test: Cell cycle arrest in human HepG2 cells assessed as accumulation at G0/G1 phase at 10 uM after 12 hrs by propidium iodide staining based flow cytometry (reference value: […]); type: functional
[34] = Binding affinity to fluorescently-labeled c-KIT1 G-quadruplex DNA (unknown origin) assessed as change in melting temperature at 2 uM in presence of 5 uM c-KIT2 G-quadruplex DNA by FRET assay
[35] = Binding affinity to fluorescently-labeled c-KIT1 G-quadruplex DNA (unknown origin) assessed as change in melting temperature at 2 uM in presence of 20 uM duplex DNA by FRET assay
HepG2 [36] = test: Cytotoxicity against human HepG2 cells after 24 hrs by MTT assay; details: HepG2, 24 h

DC50 [3]: > 25 µM
DC50 [7]: 0.47 µM
Kd [7]: 0.74 µM
Activity [11]: inactive
Selectivity ratio [12]: 15
DC50 [16]: 11.3 µM
Kd [16]: 3.8 µM
Selectivity ratio [17]: 5
DC50 [18]: 9.5 µM
Kd [18]: 22.7 µM
deltaTm [21]: 30.6 K
Activity [22]: inactive
DC50 [25]: 7.3 µM
Kd [25]: 11.6 µM
Activity [27]: Dose-dependent effect
Selectivity ratio [29]: 30
Activity [34]: inactive
Activity [35]: inactive
SMILES: O=C(NCc1cn(-c2ccc(NC(=O)[C@@H]3CCCN3)cc2)nn1)c1cccc(C(=O)NCc2cn(-c3ccc(NC(=O)[C@@H]4CCCN4)cc3)nn2)n1
Activity (HepG2 [1]): 2.6%
Activity (HepG2 [2]): 6.7%
Activity (HepG2 [4]): 55.5%
Activity (HepG2 [5]): 24.4%
Activity (HepG2 [6]): 13.8%
Activity (HepG2 [8]): 29.3%
Activity (HepG2 [9]): 18.4%
Activity (HepG2 [10]): 7.4%
Activity (HepG2 [13]): 7.3%
Activity (HepG2 [14]): 3.3%
Activity (HepG2 [15]): 38.6%
Activity (HepG2 [19]): 85.8%
Activity (HepG2 [20]): 14%
Activity (HepG2 [23]): 3.9%
Activity (HepG2 [24]): 6.1%
Activity (HepG2 [26]): 0.6%
Activity (HepG2 [28]): 8.2%
Activity (HepG2 [30]): 0.2%
Activity (HepG2 [31]): 26.7%
Activity (HepG2 [32]): 56.2%
Activity (HepG2 [33]): 65.8%
IC50 (HepG2 [36]): 7.42 µM
